Data as given in the METLIN SMRT retention time set (Domingo-Almenara et al. 2019).

Experiment: gradient 5% acetonitrile 3 min, to 50% in 2 min, to 85% in 15 min, held 3 min, 100 µL/min
Conditions: column: Zorbax Extend-C18 2.1 x 50 mm; eluents: water / acetonitrile, 0.1% formic acid
In short: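 Retention time was recorded from adduct peaks, which were picked computationally and each inspected manually. Pure standards ran in mixtures of ~100 molecules on HPLC coupled to a quadrupole time-of-flight mass spectrometer, in positive and negative ionization mode, through a Zorbax Extend-C18 column (2.1 × 50 mm, 1.8 μm) at 100 μL/min. Eluents were water and acetonitrile, each with 0.1% formic acid.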

Question: With `Cc1ccc(-c2cc(C(=O)O)n(C)c2)cc1` as the molecule, how does the RP-LC retention time read?
Answer: The RP-LC retention time was 856 s.

Question: Which RP-LC retention time does the source give for `CCS(=O)(=O)Nc1ccc(-c2noc(CNC(=O)c3ccccc3)n2)cc1` here?
Answer: The RP-LC retention time was 744 s.

Question: Which RP-LC retention time does the source give for `CN1CCN(c2nc(C(=O)NC3CCCC3)cs2)CC1` here?
Answer: Its RP-LC retention time is 585 s.

Question: For `CC(C)n1cnc2c(-c3ccccc3)cn(CC(=O)NCc3ccco3)c2c1=O`, which RP-LC retention time is on record?
Answer: Its RP-LC retention time is 592 s.

Question: For `Cc1ccc(N2C(=O)C3N=NN(Cc4nc(-c5ccc(Br)cc5)no4)C3C2=O)cc1` (stereo unspecified), which RP-LC retention time is on record?
Answer: Its RP-LC retention time is 1070 s.

Question: With `CCCS(=O)(=O)NCC1CC(=O)N(c2ccc(F)cc2)C1` (stereo unspecified) as the molecule, how does the RP-LC retention time read?
Answer: The RP-LC retention time was 669 s.

Question: Which RP-LC retention time does the source give for `Cc1nc(C)c(C(=O)N2C[C@H]3C[C@H](C2)[C@H]2CCCC(=O)N2C3)s1` here?
Answer: Its RP-LC retention time is 755 s.

Question: Which RP-LC retention time does the source give for `CCSc1nnc(NC(=O)c2ccc(OC)c([N+](=O)[O-])c2)s1` here?
Answer: The RP-LC retention time was 802 s.

Question: With `Cc1ccc(-c2ccc3nn(Cc4nc(-c5ccc(F)c(Br)c5)no4)c(=O)n3n2)cc1` as the molecule, how does the RP-LC retention time read?
Answer: The RP-LC retention time was 1090 s.

Question: For `O=C(CCC1CCCCC1)NC1CCN(c2ccc(=O)n(CC3CC3)n2)CC1`, which RP-LC retention time is on record?
Answer: The RP-LC retention time was 924 s.

Question: For `c1ccc(-n2nnnc2Oc2ccc(CNCCc3c[nH]c4ccccc34)cc2)cc1`, which RP-LC retention time is on record?
Answer: The RP-LC retention time was 748 s.

Question: With `COc1cc(S(=O)(=O)NCc2ccccc2)c(OC)cc1Br` as the molecule, how does the RP-LC retention time read?
Answer: Its RP-LC retention time is 867 s.

Question: Which RP-LC retention time does the source give for `CCNc1cc(N2CCC(CCC(=O)N3CCN(C(C)C)CC3)CC2)ncn1` here?
Answer: The RP-LC retention time was 524 s.

Question: Which RP-LC retention time does the source give for `Nc1ccc(-c2ccc3ncc4ccc(=O)n(-c5cccc(C(F)(F)F)c5)c4c3c2)cn1` here?
Answer: Its RP-LC retention time is 653 s.

Question: With `CCNC(=O)c1cc(-c2ccc(F)cc2)n[nH]1` as the molecule, how does the RP-LC retention time read?
Answer: The RP-LC retention time was 695 s.

Question: Which RP-LC retention time does the source give for `CC(C)CC(=O)Nc1ccc(S(=O)(=O)N2CCC(c3ccncc3)CC2)cc1` here?
Answer: The RP-LC retention time was 616 s.

Question: With `O=C(Cc1csc(Nc2ncccn2)n1)N1CCN(c2cccc(Cl)c2Cl)CC1` as the molecule, how does the RP-LC retention time read?
Answer: Its RP-LC retention time is 838 s.

Question: Which RP-LC retention time does the source give for `CC1(C)C(=O)N(CC(=O)N2CCc3ccccc3C2)c2ccccc21` here?
Answer: The RP-LC retention time was 930 s.

Question: For `CCOc1ccc(N2C(=O)CC(c3ccc(OC)cc3)CC2=O)cc1`, which RP-LC retention time is on record?
Answer: The RP-LC retention time was 942 s.

Question: With `CC(C)(C)c1cc(NCc2ccccn2)n2ncc(-c3ccccc3)c2n1` as the molecule, how does the RP-LC retention time read?
Answer: Its RP-LC retention time is 1230 s.

Question: With `O=S(=O)(c1ccc(Br)s1)N1CCc2nc(-c3ccccc3)ncc2C1` as the molecule, how does the RP-LC retention time read?
Answer: Its RP-LC retention time is 1160 s.

Question: With `O=C(CCSc1ccccc1)N1CCN(CC(F)(F)F)CC1` as the molecule, how does the RP-LC retention time read?
Answer: Its RP-LC retention time is 870 s.

Question: Which RP-LC retention time does the source give for `CCc1noc2nc(C)n(CC(=O)NCCc3ccccc3)c(=O)c12` here?
Answer: Its RP-LC retention time is 800 s.

Question: Which RP-LC retention time does the source give for `CCN(CCCNC(=O)c1sc2ncccc2c1-n1cccc1)c1ccccc1` here?
Answer: Its RP-LC retention time is 709 s.

Question: For `O=C(Cn1c(=O)c(=O)n(Cc2ccncc2)c2ncccc21)NC1CCCCCCC1`, which RP-LC retention time is on record?
Answer: The RP-LC retention time was 646 s.

Question: For `Cc1ccc(C)c(N2CCN(C(=O)c3ccc4c(c3)CCN4C(=O)C3CC3)CC2)c1`, which RP-LC retention time is on record?
Answer: Its RP-LC retention time is 1070 s.

Question: With `COc1ccc(CNC(=O)CSc2nnc(-c3ccccc3)n2-n2cccc2)cc1` as the molecule, how does the RP-LC retention time read?
Answer: Its RP-LC retention time is 775 s.

Question: Which RP-LC retention time does the source give for `Cn1nc(C(=O)N2CCOCC2)c2c1CCN(C(=O)Nc1ccccc1)C2` here?
Answer: Its RP-LC retention time is 658 s.

Question: With `Cc1ccc(-c2nc3n(CC(=O)N4CCCC4)c4c(c(=O)n3n2)CCC4)cc1` as the molecule, how does the RP-LC retention time read?
Answer: Its RP-LC retention time is 752 s.

Question: With `CSc1ccc(CC(=O)Nc2nnc(-c3cc(C)n(C)n3)o2)cc1` as the molecule, how does the RP-LC retention time read?
Answer: The RP-LC retention time was 669 s.

Question: With `CN(C)c1ccc2c(c1)CN(C(=O)C1CC=CC1)CCO2` as the molecule, how does the RP-LC retention time read?
Answer: Its RP-LC retention time is 610 s.

Question: Which RP-LC retention time does the source give for `COCCC(=O)NCCC1CCN(C(=O)Nc2cc(F)cc(F)c2)CC1` here?
Answer: Its RP-LC retention time is 695 s.

Question: With `O=C(Nc1nc(-c2ccccc2)cs1)c1ccc(COc2ccc(Cl)cc2Cl)o1` as the molecule, how does the RP-LC retention time read?
Answer: Its RP-LC retention time is 1280 s.

Question: Which RP-LC retention time does the source give for `O=C(NCc1ccc(-c2noc(-c3ccc(F)c(F)c3)n2)s1)C1CC1` here?
Answer: Its RP-LC retention time is 903 s.

Question: Which RP-LC retention time does the source give for `Cc1cc(F)ccc1NC(=O)c1c(O)c2cccnc2n(-c2cccc(F)c2)c1=O` here?
Answer: Its RP-LC retention time is 1250 s.

Question: With `O=c1c2c(ccn1Cc1nc(-c3ccsc3)no1)ccn2CC1CC1` as the molecule, how does the RP-LC retention time read?
Answer: The RP-LC retention time was 980 s.

Question: For `COc1cc(C2CC(=O)c3c(C)nc(N4CCN(C)CC4)nc3C2)cc(OC)c1OC` (stereo unspecified), which RP-LC retention time is on record?
Answer: Its RP-LC retention time is 629 s.

Question: With `CCCNC(=O)c1cnn(-c2cc(-c3nc(C)no3)ccn2)c1C` as the molecule, how does the RP-LC retention time read?
Answer: The RP-LC retention time was 772 s.

Question: Which RP-LC retention time does the source give for `COCCNC(=O)C1c2ccccc2CC(=O)N1Cc1ccccc1` (stereo unspecified) here?
Answer: The RP-LC retention time was 711 s.

Question: With `N#Cc1ccc(NC(=O)Cc2csc3nc(-c4ccccc4)cn23)cc1` as the molecule, how does the RP-LC retention time read?
Answer: Its RP-LC retention time is 763 s.

Question: For `CCOC(=O)NCCS(=O)(=O)N1CCN(c2ccccc2F)CC1`, which RP-LC retention time is on record?
Answer: Its RP-LC retention time is 774 s.

Question: Which RP-LC retention time does the source give for `O=C(NC(C(=O)N1CCCc2ccccc21)c1ccccc1)C1CC(=O)N(c2ccccc2)C1` (stereo unspecified) here?
Answer: Its RP-LC retention time is 951 s.

Question: For `COc1cccc(-c2ccc(=O)n(Cc3nc(-c4ccccc4Br)no3)n2)c1`, which RP-LC retention time is on record?
Answer: Its RP-LC retention time is 997 s.

Question: For `CCOc1ccc(S(=O)(=O)N(CC(=O)N2CCNCC2)C(C)C)cc1`, which RP-LC retention time is on record?
Answer: The RP-LC retention time was 625 s.

Question: For `Cc1ccc(-c2coc(-c3cccc(NS(=O)(=O)c4ccc(Br)s4)c3)n2)cc1`, which RP-LC retention time is on record?
Answer: The RP-LC retention time was 1300 s.

Question: For `COc1cccc(S(=O)(=O)N2CCC3(C2)C(=O)Nc2ccc(OC)cc23)c1` (stereo unspecified), which RP-LC retention time is on record?
Answer: The RP-LC retention time was 816 s.

Question: With `Cc1ccc(C)c(NC(=O)Cc2nnc(-c3ccc4ncccc4c3)o2)c1` as the molecule, how does the RP-LC retention time read?
Answer: The RP-LC retention time was 736 s.

Question: For `CCNS(=O)(=O)c1cc(-c2csc(C)n2)ccc1OC`, which RP-LC retention time is on record?
Answer: Its RP-LC retention time is 784 s.

Question: Which RP-LC retention time does the source give for `O=C1C(c2cccnc2)N(Cc2cccs2)C(=O)CN1c1ccccc1` (stereo unspecified) here?
Answer: The RP-LC retention time was 661 s.

Question: With `O=C(Cc1ccccc1)Nc1c(C(=O)N2CCN(c3ccccn3)CC2)oc2ccccc12` as the molecule, how does the RP-LC retention time read?
Answer: Its RP-LC retention time is 673 s.

Question: With `O=C(NCc1ccccc1)c1ccc(=O)n(CCN2CCCC2)c1` as the molecule, how does the RP-LC retention time read?
Answer: The RP-LC retention time was 579 s.

Question: With `CC(=O)N1CCc2ccc(NS(=O)(=O)CCN3C(=O)CCCC3=O)cc21` as the molecule, how does the RP-LC retention time read?
Answer: Its RP-LC retention time is 615 s.

Question: Which RP-LC retention time does the source give for `COc1cc(-c2nnc(-c3cccc(S(=O)(=O)N(C)C)c3)o2)cc(OC)c1OC` here?
Answer: Its RP-LC retention time is 873 s.

Question: Which RP-LC retention time does the source give for `CCc1nnc(-c2ccc3ccn(CC(=O)N4CCN(c5cccc(Cl)c5)CC4)c3c2)o1` here?
Answer: Its RP-LC retention time is 987 s.

Question: For `Cc1ccc(NC(=O)N2CCC(N3CCN(Cc4ccc(F)cc4)C(=O)C3=O)CC2)cc1Cl`, which RP-LC retention time is on record?
Answer: The RP-LC retention time was 831 s.

Question: Which RP-LC retention time does the source give for `COc1ccc(Cn2nc3c(S(=O)(=O)N4CCOCC4)cccn3c2=O)cc1F` here?
Answer: Its RP-LC retention time is 773 s.

Question: For `O=S(=O)(Nc1ccc(F)cc1)c1cccnc1Nc1ccccc1`, which RP-LC retention time is on record?
Answer: The RP-LC retention time was 1050 s.

Question: Which RP-LC retention time does the source give for `CC1CS(=O)(=O)N(c2ccc(S(=O)(=O)Nc3ccccc3C(F)(F)F)cc2)C1=O` (stereo unspecified) here?
Answer: Its RP-LC retention time is 819 s.

Question: Which RP-LC retention time does the source give for `COc1ccc(OC)c(NC(=O)Cc2csc3nc(-c4ccc(OC)c(OC)c4)cn23)c1` here?
Answer: The RP-LC retention time was 738 s.

Question: For `CCCCc1nn2c(=O)cc(CN3CCN(c4ncccn4)CC3)nc2s1`, which RP-LC retention time is on record?
Answer: Its RP-LC retention time is 604 s.

Question: With `CCc1nnc2nc(N3CCN(C(=O)Cc4cc(OC)cc(OC)c4)CC3)cc(C)n12` as the molecule, how does the RP-LC retention time read?
Answer: The RP-LC retention time was 623 s.

Question: Which RP-LC retention time does the source give for `CCCCn1cc(S(=O)(=O)N2CCN(c3ccc(F)cc3)CC2)c2cccnc21` here?
Answer: The RP-LC retention time was 1120 s.

Question: With `Cc1ccc(-n2c(N3CCCC(C(=O)NCCc4cccs4)C3)nc3ccsc3c2=O)cc1` (stereo unspecified) as the molecule, how does the RP-LC retention time read?
Answer: Its RP-LC retention time is 913 s.

Question: Which RP-LC retention time does the source give for `CC1=C(c2ccccc2)S(=O)(=O)N=C1N1CCCN(C(=O)NCc2ccccc2)CC1` here?
Answer: Its RP-LC retention time is 843 s.

Question: With `CCN1CCN(C(=O)c2ccc(-c3nnc4ccc(NC(=O)C5CC5)cn34)cc2)CC1` as the molecule, how does the RP-LC retention time read?
Answer: Its RP-LC retention time is 587 s.

Question: Which RP-LC retention time does the source give for `CSc1ccccc1C(=O)Nc1nc(CN2CCc3ccccc3C2)cs1` here?
Answer: Its RP-LC retention time is 594 s.
